Measured values taken from patent US20240101548A1, “HYDROXAMATE COMPOUND, PREPARATION METHOD THEREFOR AND APPLICATION THEREOF” (SHENZHEN CHIPSCREEN BIOSCIENCES CO., LTD., priority 2020, published 2024).
Where two headings read alike, the source gives them in different places.

Key:
[1] = test system: IL-2-induced JAK1/JAK3 signal pathway; experiment: IL-2-induced proliferation of KHYG-1 cells (JAK1/JAK3 signal); assay type: cell-based, human; conditions: Homo sapiens, read-out: Inhibition activity IC50 on IL-2-induced JAK1/JAK3 signal pathway
Source text: The main physiological function of cytokine IL-2 is to stimulate and maintain the proliferation and differentiation of T cells. Generally, IL-2 dependent T cells cannot survive in in-vitro culture for a long time, but the addition of IL-2 can make them continue to proliferate. The signal pathway induced by IL-2 coupling with its receptor is mediated by JAK1/JAK3-STAT5, so the inhibitor of JAK1 and/or JAK3 can inhibit the proliferation of IL-2 dependent cells.
Human natural killer cell lymphoma cell line KHYG-1 was commercially available from Health Science Research Resources Bank (HSRRB), and relevant culture conditions referred to those from HSRRB.
The inhibition rate of the tested compound on IL-2-induced cell proliferation was calculated using Microsoft Excel.
After culture at 37° C. and 5% CO2 for 72 hours, alamarBlue™ Cell Viability Reagent was added to each well following the instructions.
(§1) The well in which neither compound nor cytokine was added was designated as 0% control well, and the fluorescence value in the wells in which the final concentration of compound was 0 was designated as 100% control. The inhibition activity C50 of the tested compound on JAK1/JAK3 could be calculated from the inhibition rate of the tested compound on IL-2-induced cell proliferation at different doses.

[2] = test system: EPO-induced JAK2 signal pathway; experiment: EPO-induced proliferation of UT-7 cells (JAK2 signal); assay type: cell-based, human; conditions: Homo sapiens, UT7; UT-7 cell proliferation, EPO 10 ng/mL, 72 hours; read-out: Inhibition activity IC50 on EPO-induced JAK2 signal pathway
Protocol: The cytokine EPO, i.e. erythropoietin, can promote the proliferation and division of erythroid progenitor cells, and the signal pathway induced by EPO coupling with its receptor is mediated by JAK2-STAT5.
Human promegakaryocytic leukemia cell line UT-7 was commercially available from Cell Resource Center, Institute of Basic Medicine, Chinese Academy of Medical Sciences. The culture medium was RPIM1640 containing 10% FBS, and EPO was added for a final concentration of 10 ng/mL.
The inhibition rate of the tested compound on EPO-induced cell proliferation was calculated using Microsoft Excel.
UT-7 cell line was inoculated in 96-well plate with flat bottom at 15000 cells per well, each well was added with 10 ng/mL of human recombinant EPO (Human EPO PEPROTECH 100-64-10UG), along with tested compound respectively for a final concentration of 0, 100, 1000 or 10000 nM. After culture at 37° C. and 5% CO2 for 72 hours, alamarBlue™ Cell Viability Reagent was added to each well following the instructions. After incubation at 37° C. for color reaction, the fluorescence value at Ex530/Em590 was detected using Tecan Spark™ 10M multimode microplate reader.
as §1, with “[…]” for “0%”, “100” for “100%”, “[…] ofthe” for “C50 of the”, “JAK2” for “JAK1/JAK3”, “ofthe” for “of the”, “EPO-induced” for “IL-2-induced”

[3] = KHYG-1 cell proliferation, IL-2 10 ng/mL, 72 hours

| Compound | IC50 [1, 3] [µM] | IC50 [2] [µM] | IC50 ([1]; KHYG-1, 72 h) [µM] |
| --- | --- | --- | --- |
| CONC(=O)c1cnc(NC(=O)C2CC2)cc1Nc1cccc(-c2ccn(C)n2)c1OCC(F)(F)F [Example 50, 6-(cyclopropylcarboxamido)-N-methoxy-4-((3-(1-methyl-1H-pyrazol-3-yl)-2-(2,2,2-trifluoroethoxy)phenyl)amino)nicotinamide] | > 10 | > 10 | – |
| CONC(=O)c1cnc(Nc2ccc(F)cn2)cc1Nc1cccc(-c2ccn(C)n2)c1OCC(F)(F)F [Example 51, 6-((5-fluoropyridin-2-yl)amino)-N-methoxy-4-((3-(1-methyl-1H-pyrazol-3-yl)-2-(2,2,2-trifluoroethoxy)phenyl)amino)nicotinamide] | > 10 | > 10 | – |
| CONC(=O)c1nnc(NC(=O)C2CC2)cc1Nc1cccc(-c2ncn(C)n2)c1OC [Example 52, 6-(cyclopropylcarboxamido)-N-methoxy-4-((2-methoxy-3-(1-methyl-1H-1,2,4-triazol-3-yl)phenyl)amino)pyridazine-3-carboxamide] | > 10 | > 10 | – |
| CONC(=O)c1nnc(NC(=O)C2CC2)cc1Nc1cccc(-c2ccn(C)n2)c1OC [Example 53, 6-(cyclopropylcarboxamido)-N-methoxy-4-((2-methoxy-3-(1-methyl-1H-pyrazol-3-yl)phenyl)amino)pyridazine-3-carboxamide] | > 10 | > 10 | – |
| CONC(=O)c1cnc(NC(=O)C2CC2)cc1Nc1cccc(-c2cnn(C)c2)c1OC(F)F [Example 54, 6-(cyclopropylcarboxamido)-4-((2-(difluoromethoxy)-3-(1-methyl-1H-pyrazol-4-yl)phenyl)amino)-N-methoxy nicotinamide] | > 10 | > 10 | – |
| CONC(=O)c1cnc(NC(=O)C2CC2)cc1Nc1cccc(-c2noc(C)n2)c1OC [Example 55, 6-(cyclopropylcarboxamido)-N-methoxy-4-((2-methoxy-3-(5-methyl-1,2,4-oxadiazol-3-yl)phenyl)amino)nicotinamide] | > 10 | > 10 | – |
| CONC(=O)c1cnc(NC(=O)C2CC2)cc1Nc1cnccc1N(C)S(C)(=O)=O [Example 56, 6-(cyclopropylcarboxamido)-N-methoxy-4-((4-(N-methylmethanesulfonamido)pyridin-3-yl)amino)nicotinamide] | > 10 | > 10 | – |
| CONC(=O)c1cnc(NC(=O)C2CC2)cc1Nc1cccc(C(N)=O)c1OC [Example 57, 4-((3-carbamoyl-2-methoxyphenyl)amino)-6-(cyclopropylcarboxamido)-N-methoxy nicotinamide] | > 10 | > 10 | – |
| CONC(=O)c1cnc(Nc2ccc(F)cn2)cc1Nc1cnccc1N(C)S(C)(=O)=O [Example 58, 6-((5-fluoropyridin-2-yl)amino)-N-methoxy-4-((4-(N-methylmethanesulfonamido)pyridin-3-yl)amino)nicotinamide] | > 10 | > 10 | – |
| CONC(=O)c1cnc(NC(=O)C2CC2)cc1Nc1ccc(C)nc1N(C)S(C)(=O)=O [Example 59, 6-(cyclopropylcarboxamido)-N-methoxy-4-((6-methyl-2-(N-methylmethanesulfonamido)pyridin-3-yl)amino)nicotinamide] | > 10 | > 10 | – |
| CONC(=O)c1cnc(Nc2ccc(F)cc2)cc1Nc1ccc(C)nc1N(C)S(C)(=O)=O [Example 64, 6-((4-fluorophenyl)amino)-N-methoxy-4-((6-methyl-2-(N-methylmethanesulfonamido)pyridin-3-yl)amino)nicotinamide] | > 10 | > 10 | – |
| CON(C)C(=O)c1cnc(Nc2cccc(F)n2)cc1Nc1ccccc1N(C)S(C)(=O)=O [Example 65, 6-((6-fluoropyridin-2-yl)amino)-N-methoxy-N-methyl-4-((2-(N-methylmethanesulfonamido)phenyl)amino)nicotinamide] | – | > 10 | > 10 |
